In patent publication US20100221763A1, “Specific Acceptors for Transferases to Saccharides and Method for Obtaining and Using Same” (Health Research, Inc, priority 2005, published 2010):
Where “and” joins values, the source holds several entries; their conditions need not be identical. Equal entries are not always repeated.

Experiments:
LNCaP α2,3(O)ST = experiment: Sialyltransferase assay with LNCaP cell extract; type: biochemical, human; conditions: Table III; compound 7.5 mM; 100% = 30100 CPM (3-O-MeGalβ1,4GlcNAcβ1,6(Galβ1,3)GalNAcα-O-Bn)
Description: The prostate carcinoma cell line, LNCaP, was grown in RPMI 1640 supplemented with 10% fetal bovine serum and antibiotics (penicillin, streptomycin and amphotericin B) under conditions recommended by American Type Culture Collection (Manassas, Va.). The cells were homogenized with 0.1M Tris-Maleate pH6.3 containing 2% Triton X-100 using a Dounce all glass hand-operated homogenizer. The homogenate was centrifuged at 16,000 g for 1 h at 4° C. Protein concentration in supernatant was measured using the BCA assay (Pierce Biotech, Inc., Rockford, Ill.), with BSA as the standard. The supernatant was adjusted to 5 mg protein/ml by adding the necessary amount of extraction buffer and then stored frozen at −20° C. until use. 10 μl aliquot of this extract was used in assays run in duplicate.
(§1) The incubation mixtures run in duplicate contained 0.1M NaCacodylate buffer pH6.0, the acceptor (typically at 7.5 mM, or as indicated in some experiments), CMP-[9 ^3H] NeuAc (typically 0.2 μci; 20 μci/nmol or as indicated in some experiments) and the enzyme in a total volume of 20 μl. The control incubation mixtures contained everything except the acceptor. Incubation was carried out for 2 h at 37° C. The enzymatic transfer of [9-^3H] NeuAc to a typical acceptor was linear for 2 h and less than 30% CMP-[9-^3H] NeuAc was utilized. Chromatography, using either Dowex-1-Formate, Sep-Pak C18 or Biogel P2, was applied to separate radioactive product from un-reacted [9-^3H] NeuAc as described below.
(§2) The radioactive products from neutral allyl and methyl glycosides as well as non-glycosides were measured by fractionation on Dowex-1-Formate (Bio-Rad: AG-1X8; 200-400 mesh; format form) as follows: The incubation mixture was diluted with 1.0 ml water and passed through AG-1-formate column (1.0 ml bed volume in a Pasteur pipet which had been washed with 5 ml of 2M Formic acid followed by 10 ml water). The column was washed twice with 1.0 ml water after the entry of the sample and then eluted with 3.0 ml of 0.1M NaCl. The radioactivity present in water and 0.1M NaCl eluates were measured separately using 3a70 scintillation cocktail (Research Products International, Mount Prospect, Ill.) and a Beckman LS6500 scintillation counter. The CPM values were corrected by subtracting the blank CPM. Any radioactivity present in the water eluate (as noticed in the case of some methylglycosides) was added to the corresponding CPM value of 0.1M NaCl eluate. The radioactive products from sulfated and/or sialylated methylglycosides were also measured by the above procedure, only the elution of the AG-1-Formate column was continued further with 3.0 ml of 0.2M NaCl for achieving a complete elution of the radioactive product, a correction being made as before by subtracting the corresponding blank values.
(§3) The radioactive products from benzylglycosides and monosialylated benzylglycosides were measured by hydrophobic chromatography on Sep-Pak C18 cartridge (Waters, Milford, Mass.) and eluting the product with 3.0 ml methanol (30). The radioactivity was determined by liquid scintillation as above.
(§4) For such work, a Biogel P2 column (Fine Mesh; 1.0×116.0 cm) was used with 0.1M pyridine acetate pH5.4 as the eluent at room temperature. The effluent fractions were monitored for radioactivity and the first peak containing radioactivity was collected, lyophilized to dryness, dissolved in 200 μl of water and stored frozen at −20° C. for thin layer chromatography (TLC) and other experimentation.

[1] = molecular target: T1, Rat recombinant α2,3(N)ST (Rattus norvegicus, UniProt Q02734); experiment: Sialyltransferase assay with cloned α2,3(N)ST; type: biochemical; conditions: for Cloned Sialyltransferase Activities α2,3(N) ST %: Table III, compound 7.5 mM, 100% = 38140 CPM (Galβ1,4GlcNAcβ1,6(3-O-MeGalβ1,3)GalNAcα-O-Bn); for Sialyltransferase activity (%) Cloned α2,3(N)ST: Table I, acceptor 7.5 mM, 100% = 29520 CPM (Galβ1,4GlcNAcβ-O—Al)
T1 construct: purchased Calbiochem
T1 sequence (Q02734 29-374 limits assumed): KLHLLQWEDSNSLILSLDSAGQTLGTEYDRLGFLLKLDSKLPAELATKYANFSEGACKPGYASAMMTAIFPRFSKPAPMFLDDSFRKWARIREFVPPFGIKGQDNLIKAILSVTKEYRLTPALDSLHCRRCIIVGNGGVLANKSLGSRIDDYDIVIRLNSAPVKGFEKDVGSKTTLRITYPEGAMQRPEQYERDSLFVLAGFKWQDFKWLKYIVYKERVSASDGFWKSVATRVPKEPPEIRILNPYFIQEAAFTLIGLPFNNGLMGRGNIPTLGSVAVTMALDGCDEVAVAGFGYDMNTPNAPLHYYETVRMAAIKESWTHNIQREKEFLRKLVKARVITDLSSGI
Description: (§5) Rat recombinant α2,3(O)ST, α2,3(N)ST and α2,6(N)ST were purchased from Calbiochem and stored at either −20° C. or −70° C. as recommended by the supplier. […] 10 μl aliquots of the diluted enzymes were used in the assays run in duplicate.
as §1, §2, §3, §4

[2] = molecular target: T2, Rat recombinant α2,6(N)ST (Rattus norvegicus, UniProt P13721); experiment: Sialyltransferase assay with cloned α2,6(N)ST; type: biochemical; conditions: for Cloned Sialyltransferase Activities α2,6(N)ST %: Table III, compound 7.5 mM, 100% = 30440 CPM (Galβ1,4GlcNAcβ1,6(3-O-MeGalβ1,3)GalNAcα-O-Bn); for Sialyltransferase activity (%) Cloned α2,6(N)ST: Table I, acceptor 7.5 mM, 100% = 43500 CPM (Galβ1,4GlcNAcβ-O—Al)
T2 construct: purchased Calbiochem
T2 sequence (P13721 1-403): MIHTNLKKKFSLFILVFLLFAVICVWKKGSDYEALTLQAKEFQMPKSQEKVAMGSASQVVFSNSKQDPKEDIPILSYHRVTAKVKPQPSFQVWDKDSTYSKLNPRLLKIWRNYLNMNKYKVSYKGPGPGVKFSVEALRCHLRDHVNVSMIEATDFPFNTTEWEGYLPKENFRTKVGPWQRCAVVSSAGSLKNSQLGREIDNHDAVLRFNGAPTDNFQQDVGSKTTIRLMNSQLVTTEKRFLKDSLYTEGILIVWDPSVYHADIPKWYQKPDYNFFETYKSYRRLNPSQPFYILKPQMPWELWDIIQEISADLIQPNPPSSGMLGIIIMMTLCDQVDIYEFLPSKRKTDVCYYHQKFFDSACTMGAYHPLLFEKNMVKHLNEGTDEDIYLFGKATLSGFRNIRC
Description: as §5, §1, §2, §3, §4

[3] = molecular target: T3, Rat recombinant α2,3(O)ST (Rattus norvegicus, UniProt Q11205); experiment: Sialyltransferase assay with cloned α2,3(O)ST; type: biochemical; conditions: for Cloned Sialyltransferase Activities α2,3(O) ST %: Table III, compound 7.5 mM, 100% = 39200 CPM (3-O-MeGalβ1,4GlcNAcβ1,6(Galβ1,3)GalNAcα-O-Bn); for Sialyltransferase activity (%) Cloned α2,3(O)ST: Table I, acceptor 7.5 mM, 100% = 40560 CPM (3-O-MeGalβ1,4GlcNAcβ1,6(Galβ1,3)GalNAcα-O-Bn)
T3 construct: purchased Calbiochem
T3 sequence (Q11205 1-350): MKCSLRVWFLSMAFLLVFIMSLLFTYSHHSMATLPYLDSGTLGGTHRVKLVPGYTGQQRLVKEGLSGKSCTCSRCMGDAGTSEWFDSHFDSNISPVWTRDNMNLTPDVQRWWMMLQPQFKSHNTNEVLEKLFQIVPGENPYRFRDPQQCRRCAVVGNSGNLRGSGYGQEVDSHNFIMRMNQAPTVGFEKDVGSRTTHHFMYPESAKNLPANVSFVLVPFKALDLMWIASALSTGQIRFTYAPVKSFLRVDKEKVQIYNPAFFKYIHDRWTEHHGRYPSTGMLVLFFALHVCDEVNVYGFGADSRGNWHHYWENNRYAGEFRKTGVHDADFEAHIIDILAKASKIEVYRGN
Description: as §5, §1, §2, §3, §4

Structure (SMILES)	Cloned Sialyltransferase Activities α2,3(N) ST % [1]	Cloned Sialyltransferase Activities α2,6(N)ST % [2]	Cloned Sialyltransferase Activities α2,3(O) ST % [3]	Sialyltransferase activity (%) Cloned α2,3(N)ST [1]	Sialyltransferase activity (%) Cloned α2,6(N)ST [2]	Sialyltransferase activity (%) Cloned α2,3(O)ST [3]	further results
CO[C@@H]1[C@H](O)[C@@H](O)[C@H](O[C@H]2[C@H](O)[C@@H](NC(C)=O)[C@H](OC[C@H]3O[C@H](OCc4ccccc4)[C@H](NC(C)=O)[C@@H](O[C@@H]4O[C@H](CO)[C@H](O)[C@H](O)[C@H]4O)[C@H]3O)O[C@@H]2CO)O[C@@H]1CO [4-O-MeGalβ1,4GlcNAcβ1,6(Galβ1,3)GalNAcα-O-Bn]	99.8%	12.6%	103.0%				LNCaPα2,3(O)ST % (LNCaP α2,3(O)ST): 97.1%; α2,3(N)ST activity compared to Galβ1,4GlcNAcβ1,6(Galβ1,3)GalNAcα-O-Bn (FIG. 3B) ([1]; lowest concentration tested, 0.05 mM): four fold; α2,3(N)ST activity compared to Galβ1,4GlcNAcβ1,6(Galβ1,3)GalNAcα-O-Bn (FIG. 3B) ([1]; maximum concentration tested, 0.25 mM): two-fold; α2,6(N)ST activity at varying acceptor concentration (FIG. 3A) ([2]; maximum concentration tested, 0.75 mM): almost inactive
CC(=O)N[C@H]1[C@H](OC[C@H]2O[C@H](OCc3ccccc3)[C@H](NC(C)=O)[C@@H](O[C@@H]3O[C@H](CO)[C@H](O)[C@H](O)[C@H]3O)[C@H]2O)O[C@H](CO)[C@@H](O[C@@H]2O[C@H](CO)[C@H](O)[C@H](O)[C@H]2O)[C@@H]1O [Galβ1,4GlcNAcβ1,6(Galβ1,3)GalNAcα-O-Bn]				100.7%	93.3%	94.4^4%	α2,6(N)ST activity at varying acceptor concentration (FIG. 3A) ([2]; lowest concentration tested, 0.15 mM): considerable activity
CO[C@H]1O[C@H](CO[C@@H]2O[C@H](COS(=O)(=O)O)[C@@H](O[C@@H]3O[C@H](CO)[C@H](O)[C@H](O)[C@H]3O)[C@H](O)[C@H]2NC(C)=O)[C@H](O)[C@H](O[C@@H]2O[C@H](CO)[C@H](O)[C@H](O[C@]3(C(=O)O)C[C@H](O)[C@@H](NC(C)=O)[C@H]([C@H](O)[C@H](O)CO)O3)[C@H]2O)[C@H]1NC(C)=O [Galβ1,4(6-O-Sulfo)GlcNAcβ1,6(NeuAcα2,3Galβ1,3)GalNAcα-O-Me]				50.8% and 50.8^22%	0.9%		Sialyltransferase activity (%) Cloned α2,3(N)ST ([1]; listed as Galβ1,4(6-O-Sulfo)GlcNAcβ1,6(NeuAcα2,3Galβ1,3)GalNAcα-): 50.8%
CC(=O)N[C@H]1[C@H](OC[C@H]2O[C@H](OCc3ccccc3)[C@H](NC(C)=O)[C@@H](O[C@@H]3O[C@H](CO)[C@H](O)[C@H](O)[C@H]3O)[C@H]2O)O[C@H](CO)[C@@H](O[C@@H]2O[C@H](CO)[C@H](F)[C@H](O)[C@H]2O)[C@@H]1O [4-FGalβ1,4GlcNAcβ1,6(Galβ1,3)GalNAcα-O-Bn]	7.9%	2.7%	102.1%				
CO[C@H]1O[C@H](CO[C@@H]2O[C@H](CO)[C@@H](O[C@@H]3O[C@H](CO)[C@H](O)[C@H](O)[C@H]3O)[C@H](O[C@@H]3O[C@@H](C)[C@@H](O)[C@@H](O)[C@@H]3O)[C@H]2NC(C)=O)[C@H](O)[C@H](O[C@@H]2O[C@H](CO)[C@H](O)[C@H](O)[C@H]2O)[C@H]1NC(C)=O [Galβ1,4(Fucα1,3)GlcNAcβ1,6(Galβ1,3)GalNAcα-O-Me]				19.0%	7.1%	133.4%	
CO[C@H]1[C@H](O[C@H]2[C@H](O)[C@@H](CO)O[C@@H](OCc3ccccc3)[C@@H]2NC(C)=O)O[C@H](CO)[C@H](O)[C@@H]1O [2-O-MeGalβ1,3GlcNAcβ-O-Bn]					0%		
CC(=O)N[C@H]1[C@H](OC[C@H]2O[C@H](OCc3ccccc3)[C@H](NC(C)=O)[C@@H](O[C@@H]3O[C@H](CO)[C@H](O)[C@H](O)[C@H]3O)[C@H]2O)O[C@H](CO)[C@@H](O[C@@H]2O[C@H](CO)[C@H](O)[C@H](F)[C@H]2O)[C@@H]1O [3-FGalβ1,4GlcNAcβ1,6(Galβ1,3)GalNAcα-O-Bn]	7.2%	11.3%	102.9^12%				LNCaPα2,3(O)ST % (LNCaP α2,3(O)ST): 91.5%
CO[C@H]1O[C@H](CO[C@@H]2O[C@H](COS(=O)(=O)O)[C@@H](O[C@@H]3O[C@H](CO)[C@H](O)[C@H](O)[C@H]3O)[C@H](O[C@@H]3O[C@@H](C)[C@@H](O)[C@@H](O)[C@@H]3O)[C@H]2NC(C)=O)[C@H](O)[C@H](O[C@@H]2O[C@H](CO)[C@H](O)[C@H](O[C@]3(C(=O)O)C[C@H](O)[C@@H](NC(C)=O)[C@H]([C@H](O)[C@H](O)CO)O3)[C@H]2O)[C@H]1NC(C)=O [Galβ1,4(6-O-Sulfo)(Fucα1,3)GlcNAcβ1,6(NeuAcα2,3Galβ1,3)GalNAcα-O-Me]				1.7%	0%		
CO[C@H]1[C@@H](O)[C@@H](CO)O[C@@H](O[C@H]2[C@H](O)[C@@H](NC(C)=O)C(O)O[C@@H]2CO)[C@@H]1O (stereo partly drawn) [3-O-MeGalβ1,4GlcNAc]				1.4%	8.7%	3.6%	
